Results from patent US9593149B2, “Amylin and calcitonin receptor agonist” (Novo Nordisk A/S, priority 2014, dated 2017).

Test: Assay (XV) subcutaneous PK in LYD-pigs, co-formulated or co-dosed with liraglutide
Assay type: in vivo
Conditions: administered as co-formulations to LYD pigs
Protocol: The studies were performed in female LYD pigs of SPF origin delivered from Lars Jonson, Hillerødvej 70, Lynge.
Before the animals arrived, the animal rooms and pens were cleaned and disinfected with Virkon S. During the study, the animal rooms were cleaned and washed regularly.
The pigs were group housed during the acclimatisation period. The pigs were fitted with a central venous catheter while under anaesthesia and after the single housed after catheterization in pens ≧3.1 m^2 with straw as bedding. The temperature in the rooms was set at 20−23° C. and the relative humidity to 30-70%. The rooms were illuminated to give a cycle of 12 hours light and 12 hours darkness. Light was on from 07.00 to 19.00 h.
The formulations was prepared similarly and filled in cartridges in all cases.
The animals were dosed subcutaneously as follows.
The s.c. dosing was performed in 4 mm depth, in a site of injection which was secured on beforehand by ultrasound to avoid muscular tissue or heavy vascularization. Dosing was made using NovoPen®4 and needle Novofine 28 G and a needle stopper to ensure 4 mm depth of injection. The needle was kept in the subcutis for 10 seconds after the injection to secure deposition of compound. […] The co-formulation was administered as one injection. Study was performed as a cross over study with adequate wash out between dosings.
Blood was sampled at predefined time points for up till 15 days post dosing to adequately cover the full plasma concentration-time profile of the mimylin derivative. Blood samples were drawn from a central venous catheter to jugularis made through the catheter which was afterwards flushed with 10 ml 0.9% NaCl.
For each blood sampling time point approximately 0.8 mL of whole blood was collected in a 1.5 mL EDTA coated tube, and the tube was gently turned to allowing mixing of the sample with the anticoagulant. Blood samples (for example 0.8 mL) were collected in EDTA buffer (8 mM) and then centrifuged at 4° C. and 2000 G for 10 minutes. Plasma was pipetted into Micronic tubes on dry ice, and kept at −20° C. until analysis.
Individual plasma concentration-time profiles were analysed by a non-compartmental model in Phoenix WinNonlin version 6.3 (Pharsight Inc., Mountain View, Calif., USA).
The area under the plasma concentration versus time curve (AUC, [time×concentration]) was calculated (by the Pharsight programme) after subcutaneous administration, typically until 240-288 hours post dosing, or until last measured concentration. The AUC was calculated and given as AUCinf-pred and dose normalized.
Results of co-formulation studies in LYD-pigs are summarized below

CCCCCCCCCCCCCCCC(=O)N[C@@H](CCC(=O)NCCCC[C@H](NC(=O)[C@H](C)NC(=O)[C@H](C)NC(=O)[C@H](CCC(N)=O)NC(=O)CNC(=O)[C@H](CCC(=O)O)NC(=O)[C@H](CC(C)C)NC(=O)[C@H](Cc1ccc(O)cc1)NC(=O)[C@H](CO)NC(=O)[C@H](CO)NC(=O)[C@@H](NC(=O)[C@H](CC(=O)O)NC(=O)[C@H](CO)NC(=O)[C@@H](NC(=O)[C@H](Cc1ccccc1)NC(=O)[C@@H](NC(=O)CNC(=O)[C@H](CCC(=O)O)NC(=O)[C@H](C)NC(=O)[C@@H](N)Cc1cnc[nH]1)[C@@H](C)O)[C@@H](C)O)C(C)C)C(=O)N[C@@H](CCC(=O)O)C(=O)N[C@@H](Cc1ccccc1)C(=O)N[C@H](C(=O)N[C@@H](C)C(=O)N[C@@H](Cc1c[nH]c2ccccc12)C(=O)N[C@@H](CC(C)C)C(=O)N[C@H](C(=O)N[C@@H](CCCNC(=N)N)C(=O)NCC(=O)N[C@@H](CCCNC(=N)N)C(=O)NCC(=O)O)C(C)C)[C@@H](C)CC)C(=O)O [Liraglutide, N^ε26-[(4S)-4-carboxy-4-(hexadecanoylamino)butanoyl]-[Arg^34]-GLP-1-(7-37)-peptide, reference compound]
effect on PK profile of the co-formulated peptide: not affect the PK profile of Ex. compound 2 or 46
